Assay results taken from patent US20180273970A1, “PLASMID, TRANSFORMED PLANT CELL AND TRANSGENIC PLANT COMPRISING THE SAME, AND METHODS FOR PREPARING A TRANSGENIC PLANT AND FOR INCREASING YIELD OF A PLANT UNDER ABIOTIC STRESSES” (Academia Sinica, priority 2014, published 2018).

Assays:
[1] = tested on: SKIN1; experiment: Quantitative RT-PCR of SKIN1 mRNA in leaves of 2-week-old rice seedlings after stress or ABA; format: in vivo; conditions: 24 h after 1 μM ABA
Protocol: FIG. 9. The expression of SKIN is induced by various abiotic stresses and ABA, and SKINs promote the ABA sensitivity. (A) Total RNA was purified from leaves of 2-week-old rice seedlings that had been air dried, treated with 200 mM salt, incubated at 4° C., or treated with 1 μM ABA, or from embryos of seedlings grown underwater (hypoxia), for various lengths of time. RNAs were subjected to quantitative RT-PCR analysis using primers specific for SKIN1 and SKIN2. The highest mRNA level was set as 100%. The lowest mRNA level was assigned a value of 1× and mRNA levels of other samples were calculated relative to this value. Error bars indicate the SE for three replicate experiments. (B) Seeds of transgenic lines SKIN1-Ox(O3), SKIN1-Ri(R3), SKIN2-Ox(02) and SKIN2-Ri(R1) were germinated and grown in water containing various concentrations of ABA at 28° C. under a 14-h light/10-h dark cycle for 6 days. Lengths of shoots were measured. Error bars represent SE (n=8) at significance levels: * p<0.1, ** p<0.05. […]
Total RNA was extracted from leaves of rice seedlings with the Trizol reagent (Invitrogen) and treated with RNase-free DNase I (Promega, Madison, Wis.). […] The quantitative variation between different samples was evaluated by the delta-delta CT method, and the amplification of 18S ribosomal RNA was used as an internal control to normalize all data.

[2] = tested on: αAmy3 SRC promoter; experiment: Rice embryo transient expression assay, SRC-35Smp:Luc reporter (luciferase); format: cell-based; conditions: rice embryos, 1 μM ABA or 50 mM sorbitol, 24 h
Protocol: FIG. 3. The highly conserved GKSKSF domain (KSD) is essential for SKINs to antagonize the function of SnRK1A. Rice embryos were transfected with plasmids, incubated in medium with 100 mM glucose (+S) or without glucose (−S) for 24 h, and assayed for luciferase activity. The luciferase activity in rice embryos bombarded with the SRC-35S mp-Luc construct only and in +S medium was set to 1×, and other values were calculated relative to this value. Error bars indicate the SE for three replicate experiments. (A) Plasmid constructs. (B) Rice embryos were co-transfected with effector Ubi:SnRK1A, Ubi:SKIN1 or Ubi:SKIN(Ri) alone and reporter SRC-35Smp:Luc, or co-transfected with effectors Ubi:SnRK1A and Ubi:SKIN or Ubi:SKIN(Ri) and reporter SRC-35Smp:Luc. (C) Total cellular proteins were extracted from rice embryos transfected with Ubi:SnRK1A, Ubi:SKIN or Ubi:SnRK1A and Ubi:SKIN by particle bombardment and subjected to Western blot analysis using antibodies against SnRK1A and the HA tag fused to at the N-terminus of SKINs. (D) Rice embryos were co-transfected with effectors Ubi:SnRK1A and Ubi:SKIN1 (wild-type or truncated) and reporter SRC-35Smp:Luc. (E) Rice embryos were co-transfected with effectors Ubi:SnRK1A and Ubi:SKIN (wild-type, KSD deleted, or KSD replaced with 6 Ala) and reporter SRC-35Smp:Luc.
FIG. 21. ABA and sorbitol suppress the function of SnRK1A in activation of αAmy3 SRC promoter. Rice embryos and barley aleurones were transfected with reporter SRC-35Smp:Luc with or without effectors, incubated with or without ABA for 24 h, and assayed for luciferase activity. The luciferase activity in embryos or aleurones bombarded with the SRC-35S mp-Luc construct only and in +S medium was set to 1×, and other values were calculated relative to this value. Error bars indicate the SE for three replicate experiments. (A) Plasmid constructs. (B) Barley aleurones were transfected with effector Ubi:SnRK1A, Ubi:SKIN1 or Ubi:SKIN(Ri) alone and reporter SRC-35Smp:Luc, or co-transfected with effectors Ubi:SnRK1A and Ubi:SKIN or Ubi:SKIN(Ri) and reporter SRC-35Smp:Luc. (C) Rice embryos (upper panel) were transfected with or without Ubi:SnRK1A and incubated with or without 1 μM ABA or 50 mM sorbitol, and barley aleurones (lower panel) were transfected with or without Ubi:SnRK1A and incubated with 5 μM ABA or 400 mM sorbitol.
Rice embryos were prepared for particle bombardment as described (Chen et al., 2006). The rice embryos were bombarded with reporter, effectors and internal control at a ratio of 4:2:1 for single effector or 4:2:2:1 for two effectors. The internal control (Ubi::GUS) was used to normalize the reporter enzyme activity because different transformation efficiency might occur in each independent experiment. Bombarded rice embryos were divided into two halves, with half being incubated in MS liquid medium containing 100 mM Glc, and the other half grown in MS liquid containing 100 mM mannitol, for 24 h. Total proteins were extracted for embryos with a cell lysis buffer [0.1 M K-phosphate, pH 7.8, 1 mM EDTA, 10% glycerol, 1% triton X-100, and 7 mM β-mercaptoethanol]. GUS assay buffer [0.1 M Na-phosphate, 20 mM EDTA, 0.2% sarcosine, 0.2% Triton X-100, and 20 mM β-mercaptoethanol] was used for GUS activity assay. The activity assay of GUS and luciferase were described elsewhere (Lu et al., 1998). All bombardments were repeated at least three times.

CC1=CC(=O)CC(C)(C)[C@@]1(O)/C=C/C(C)=C\C(=O)O [ABA, abscisic acid]
Induction of SKIN1 mRNA accumulation [1]: ≤ 4.2 fold | Effect on αAmy3 SRC promoter (luciferase activity), alone and SnRK1A-activated [2]: suppressed
